Experiments:
[1] = tested on: mouse model of generalised seizure; assay: Maximal electroshock seizure threshold (MEST) test in the mouse, Example 3; conditions: CC50, 30 min pre-treatment
Procedure: The efficacy of CBD-C1 was tested in a mouse model of generalised seizure, the maximal electroshock seizure threshold (M EST) test, as in Example 2.
Naïve mice were acclimatised to the procedure room in their home cages for up to 7 days, with food and water available ad libitum.
All animals were weighed at the beginning of the study and randomly assigned to treatment groups based on a mean distribution of body weight across groups.
The first animal within a treatment group was given a shock at the expected or estimated CC50 current. For subsequent animals, the current was lowered or raised depending on the convulsions outcome from the preceding animal.
Data generated from each treatment group were used to calculate the CC50±SEM values for the treatment group.
Vehicle: (5% ethanol, 5% solutol, 90% Saline) was prepared as follows: 2 mL of ethanol, 2 mL of solutol were warmed to 60° C., in 36 mL of saline (1:1:18).
The test compound, CBD-C1 was prepared according to the method described in Example 1. […]
CBD-C1 effects were also calculated as percentage change in CC50 from the vehicle control group.
Significant difference between drug-treated animals and controls were assessed according to Litchfield and Wilcoxon (1949).

[2] = tested on: mouse model of seizure; assay: Maximal electroshock seizure threshold (MEST) test in the mouse, Example 2; conditions: CC50; 2.5 mg/kg i.p., 30 min pre-treatment
Procedure: The efficacy of CBD-C1 was tested in a mouse model of seizure, the maximal electroshock seizure threshold (MEST) test.
The maximal electroshock seizure threshold (MEST) test is widely utilized preclinically to evaluate pro- and anti-convulsant properties of molecules (Loscher et al., 1991).
In the MEST test the ability of a drug to alter the seizure threshold current required to induce hind limb tonic extensor convulsions is measured according to an “up and down” method of shock titration (Kimball et al., 1957). An increase in seizure threshold is indicative of anti-convulsant effect.
Naïve mice were acclimatised to the procedure room in their home cages, with food and water available ad libitum.
Animals were dosed i.p. according to dose group.
The vehicle (10 ml/kg i.p. 60 min pre-treatment time) was 1:1:18 vehicle 5% ethanol, 5% kolliphor EL, 90% saline. […]
Mice were individually assessed for the production of a tonic hind limb extensor seizure using a Hugo Sachs Electronik stimulator, which delivered an adjustable constant current (1-300 mA) of 0.1 s duration via corneal electrodes. […]
Induction of seizure is measured as an all-or-nothing effect scored as either present (+) or absent (0) for each animal.
Data was analysed by comparing treated groups with the appropriate vehicle control using Fisher's Exact Probability tests.

SMILES: CN1C(=O)CN=C(c2ccccc2)c2cc(Cl)ccc21 [Diazepam, diazepam, reference compound]
- % change from vehicle ([1]; 2.5 mg/kg i.p.): 247%
- % change from vehicle [2]: 68%

SMILES: CCCC(CCC)C(=O)[O-].[Na+] [Sodium Valproate, sodium valproate, reference compound]
- % change from vehicle ([1]; 250 mg/kg i.p.): 1160%

Reference: patent publication US12396963B2, “Cannabidiol-type cannabinoid compound” (JAZZ PHARMACEUTICALS RESEARCH UK LIMITED, priority 2019, dated 2025)
